In PMC8879074, “A Novel Small Molecular Prostaglandin Receptor EP4 Antagonist, L001, Suppresses Pancreatic Cancer Metastasis” (Molecules, 2022):

Tests used:
[1] = test system: Pan02-Luc hepatic metastasis; experiment: Pan02-Luc liver metastasis model with bioluminescent imaging; format: in vivo, C57BL/6 mice
Description: Male C57/BL6 mice (6–8 weeks) were obtained from the National Rodent Laboratory Animal Resources (NRLAR, Shanghai, China). All mice were housed according to Institutional Animal Care and Use Committee guidelines and under a protocol approved by East China Normal University Ethics Committee with respect to animal care and welfare assurance. The bioluminescent liver metastasis mouse model was established as described previously. In brief, 2 × 10^6 Pan02/luc cells suspended in 50 μL of PBS were injected into mice spleen. […] Tumor metastasis was monitored by using an in vivo imaging system following intraperitoneal injection with D-Luciferin (2 mg per mouse; Promega). Bioluminescence intensity was recorded every seven days by a Xenogen IVIS-200 Optical in vivo imaging system (PerkinElmer; Waltham, MA, USA) for up to 4 weeks. The mouse body weight was measured every other day. Survival curve analysis was performed using GraphPad Prism 7.
Mouse liver tissues were harvested, fixed, paraffin embedded, and sectioned (8 μm). The tissues were permeabilized with 0.25% TritonX-100 at room temperature for 15 min, blocked with 1% FBS in PBS, and followed by incubation in primary antibodies at 4 °C overnight: rabbit anti-YAP (1:50 dilution, ab205270, abcam). The sections were then washed with PBS, incubated with anti-rabbit secondary antibody for 2 h and dyed with DAPI (10 μg/mL in PBS) for 5 min at room temperature. Slides were mounted using DPX Mountant (Electron Microscopy Sciences) and images were obtained by inverted fluorescence microscope (Olympus, Tokyo, Japan).

[2] = test system: YAP, CYR61 and CTGF mRNA in Pan02 cells; experiment: Real-time qPCR of YAP and YAP target genes, Pan02; format: cell-based, murine; conditions: PGE2 0.1 μM, compound 10 μM, 12 h
Description: Total RNA was extracted from cells using TRIzol reagent. The cDNA was synthesized by RT-PCR kit (Vazyme Biotech, Nanjing, China). The band intensity was determined by the gel image analysis system (Bio-Rad, Hercules, CA, USA). SYBR Green-based qPCR (Yeason, Shanghai, China) was conducted subsequently. Relative mRNA levels of target genes were normalized with β-actin. The sequences of primers are listed in Supplementary Table S1. The raw data are listed in Supplementary Table S2.

## C[C@H](NC(=O)c1c(Cc2cccc(C(F)(F)F)c2)sc2c1CCOC2)c1ccc(C(=O)O)cc1 [L001]
[1]; IHC, L001 75 mg/kg p.o. daily
  YAP protein level in hepatic metastasis loci: decreased protein levels of YAP
[1]; L001 or E7046 75 mg/kg p.o. daily, gemcitabine 25 mg/kg i.p. twice a week
  H&E imaging of liver sections: remarkably reduced metastatic clusters
[1]; L001 or E7046 75 mg/kg p.o. daily, gemcitabine 25 mg/kg i.p. twice a week, n = 6
  reduction of Pan02 cell liver metastases (bioluminescence of separated livers): 85.14%
[1]; day 28, L001 or E7046 75 mg/kg p.o. daily, gemcitabine 25 mg/kg i.p. twice a week, n = 6
  reduction in median luminescence signal compared with vehicle control group: 80.57%
[1]; n = 9, L001 or E7046 75 mg/kg p.o. daily, gemcitabine 25 mg/kg i.p. twice a week, control 34 days
  median survival: 42 days
[1]; qPCR, L001 75 mg/kg p.o. daily
  mRNA expressions of Vimentin and Snail in hepatic metastasis loci: reduced the mRNA expressions
[2]
  mRNA expression levels of YAP, CYR61 and CTGF induced by PGE2, in comparison with E7046: stronger reductions
